# Source: patent US10208056B2, “Condensed tricyclic compounds as protein kinase inhibitors” (FUNDACIÓN DEL SECTOR PÚBLICO ESTATAL CENTRO NACIONAL DE …, priority 2015, dated 2019)
# Key:
# CDK8/Cyclin C = CDK8/Cyclin C (Homo sapiens (Human), UniProt P49336); test: CDK8/Cyclin C binding assay (LanthaScreen Eu-Kinase Binding Assay); settings: binding assay
# Method: The enzyme has been purchase from Invitrogen (PV4402) as a dimer of full-length His-tagged recombinant human proteins.
# (§1) Assays were performed in 384-well plates. The final read out was generated using an EnVision plate reader (Perkin-Elmer).
# CDK19/Cyclin C = CDK19/Cyclin C (Homo sapiens (Human), UniProt Q9BWU1); test: CDK19/Cyclin C binding assay (LanthaScreen Eu-Kinase Binding Assay); settings: read-out: CDK19-CYCC IC50
# Method: The binding assay relies on the LanthaScreen™ Eu-Kinase Binding Assay (Invitrogen).
# Assay conditions were as indicated by the kit manufacturers with the following adaptations: • Assay buffer: 50 mM HEPES, pH 7.5, 1 mM EGTA, 0.01% Brij-35, 10 mM MgCl2 • Assay volume: 20 μl • Incubation time and temperature: 60 min at 25° C. • Cdk19-Cyclin C concentration: 2 nM • Tracer concentration: 20 nM • (Eu)-labelled anti-GST antibody concentration: 2 nM • Tested compound: Serial 1:3 dilutions • Final DMSO concentration in the assay: 1%
# as §1
# intracellular CDK8 [1] = target: T1, intracellular CDK8 (Homo sapiens (Human), UniProt P49336); test: Cellular CDK8 inhibition assay, western blot P-STAT1 (S727) in IFN-γ treated SW620 cells; format: cell-based; settings: SW620, IFNγ treated, semiquantitative; read-out: SW620 P-STAT1(S727) w IFNγ
# Method: Compounds can be screened for their ability to inhibit intracellular CDK8 using a western blot assay to detect phosphorylation of the CDK8 substrate STAT1 (S727) in IFN-γ treated cells. SW620 cells are plated at 1*10^6 cells per well in 6-well plates (Solmeglas 13118) in RPMI media (Sigma-Aldrich R6504) supplemented with 10% foetal bovine serum (Sigma-Aldrich F7524), Penicillin/Streptomycin solution diluted 1:100 (Gibco 15070-063), and fungizone (Gibco, 15290-018), and allowed to adhere overnight at 37° C. in 5% CO2. Compounds are then added to the cell media from a final concentration of 10 μM in 10-fold serial dilutions and the cells are incubated at 37° C. in 5% CO2. After 1 hour, IFNγ (R&D systems Ref. RYD-285-IF-100) is added to a final concentration of […]. After 3 hours of treatment with IFNγ, the cells are washed in PBS, lysed adding 100 μl of protein lysis buffer (62.5 mM Tris pH 6.8 al 6.25%, 2% SDS y 10% glycerol) incubation 10 minutes at room temperature and heating at 95° C. 10 min. The protein content of the lysates is determined by DC protein assay (Biorad, Ref. 5000116). The proteins are resolved by SDS-PAGE and transferred to nitrocellulose membrane (VWR International eurolab, Ref. 732-4007). The membranes are incubated overnight at 4° C. with antibodies specific for total STAT1 (BD Transduction laboratory #610115), phosphoserine-727 STAT1 (Cell Signaling Ref. 9177) they are washed and then incubated with IRDye800 conjugated anti-mouse (Pierce/Cultek, 35521) and Alexa Fluor 680 goat anti-rabbit IgG secondary antibodies (Invitrogen, A21076). The bands are visualized and quantified using an Odyssey infrared imaging system (Li-Cor Biosciences). The percentage of phosphorylated STAT1 vs total STAT1 in cells treated with IFNγ is taken as hundred percent of phosphorylation. The percentage of STAT1 phosphorylation is finally plotted against concentration for each compound and EC50s for intracellular CDK8 inhibition are calculated using ActivityBase from IDBS.
# MV4:11 = test: In vitro cell proliferation assay (CellTiter-Glo), MV4:11; format: cell-based; settings: Homo sapiens, MV4-11; growth inhibition, semiquantitative; read-out: GI50 MV4:11
# Method: (§2) The in vitro potency of the compounds was measured by the cell proliferation assay CellTiter-Glo® Luminescent Cell Viability Assay, commercially available from Promega Corp., Madison, Wis. This homogeneous assay method is based on the recombinant expression of Coleoptera luciferase (U.S. Pat. No. 5,583,024; U.S. Pat. No. 5,674,713; U.S. Pat. No. 5,700,670) and determines the number of viable cells in culture based on quantitation of the ATP present, an indicator of metabolically active cells (Crouch et al (1993) J. Immunol. Meth. 160:81-88; U.S. Pat. No. 6,602,677). The CellTiterGlo® Assay was conducted […] it amenable to automated high throughput screening (HTS) (Cree et al (1995) AntiCancer Drugs 6:398-404).
# (§3) The homogeneous assay procedure involves adding the single reagent (CellTiter-Glo® Reagent) directly to cells cultured in serum-supplemented medium. Cell washing, removal of medium and multiple pipetting steps are not required. The system detects as few as 15 cells/well in a 96-well format in 10 minutes after adding reagent and mixing.
# (§4) The homogeneous “add-mix-measure” format results in cell lysis and generation of a luminescent signal proportional to the amount of ATP present. The amount of ATP is directly proportional to the number of cells present in culture. The CellTiter-Glo® Assay generates a “glow-type” luminescent signal, produced by the luciferase reaction, which has a half-life generally greater than five hours, depending on cell type and medium used. Viable cells are reflected in relative luminescence units (RLU). The substrate, Beetle Luciferin, is oxidatively decarboxylated by recombinant firefly luciferase with concomitant conversion of ATP to AMP and generation of photons. The extended half-life eliminates the need to use reagent injectors and provides flexibility for continuous or batch mode processing of multiple plates. This cell proliferation assay can be used with various multiwell formats, e.g. 96 or 384 well format. Data can be recorded by luminometer or CCD camera imaging device. The luminescence output is presented as relative light units (RLU), measured over time.
# MDA-MB-231 = test: In vitro cell proliferation assay (CellTiter-Glo), MDA-MB-231; format: cell-based; settings: Homo sapiens, MDA-MB-231; growth inhibition, semiquantitative; read-out: GI50 MDA-MB-231
# Method: as §2, §3, §4
# SW620 [2] = test: In vitro cell proliferation assay (CellTiter-Glo), SW620; format: cell-based, human; settings: Homo sapiens, SW-620; growth inhibition, semiquantitative; read-out: GI50 SW620
# Method: as §2, §3, §4
# Molm13 = test: In vitro cell proliferation assay (CellTiter-Glo), Molm13; format: cell-based; settings: Homo sapiens, MOLM-13; growth inhibition, semiquantitative; read-out: GI50 Molm13
# Method: as §2, §3, §4
# Haspin kinase = Haspin kinase (Homo sapiens (Human), UniProt Q8TF76); test: Haspin kinase assay (ADP-Glo); format: biochemical; settings: ATP 150 μM
# Text: The kinase assay relies on ADP-Glo^KM biochemical kinase assay (Promega). This is a luminescent kinase assay that measures ADP formed from a kinase reaction. Then ADP is converted into ATP, which is transformed into a light signal by Ultra-Glo™ Luciferase. The luminescent signal positively correlates with kinase activity. The assay measures the intrinsic ATPase activity (in the absence of peptidic substrate as phosphate acceptor).
# The enzyme was purchase from Invitrogen (PV5708) as the kinase domain of GST tagged recombinant human proteins.
# Assay conditions were as indicated by the kit manufacturers with the following adaptations: • Assay buffer: 15 mM HEPES pH 7.4, 20 mM NaCl, 1 mM EGTA, 0.02% Tween 20, 10 mM MgCl2, 0.1 mg/ml BGG • Assay volume: 20 μl • Incubation time and temperature: 60 min at 30° C. • Haspin concentration: 20 nM • ATP concentration: 150 μM • Tested compound: Serial 1:3 dilutions • Final DMSO concentration in the assay: 1%
# Assays were performed in 384-well plates. The final read out was generated using an EnVision plate reader (Perkin-Elmer). Luminescent relative units are normalized against the control activity included for each compound (i.e., 100% Haspin activity, without compound) and the percentage of inhibition is calculated.
# intracellular CDK8 [3] = target: T1, intracellular CDK8; test: Endogenous phosphoSTAT1 inhibition in SW620 cells growing in 10% FBS; format: cell-based; settings: semiquantitative, read-out: SW620 P-STAT1(S727)
# Method: Endogenous phosphoSTAT1 inhibition can be screened in cells growing in 10% FBS. Cells are plated as described before and treated for 8 h with compounds as described before. Then cells are lysated and phospho STAT1 is evaluated as described before. The percentage of phosphorylated STAT1 vs total STAT1 in cells treated with DMSO is taken as hundred percent of phosphorylation. The percentage of STAT1 phosphorylation is finally plotted against concentration for each compound and EC50s for intracellular CDK8 inhibition are calculated using ActivityBase from IDBS.
# SW620 [4] = test: Combination assay, SW620; format: cell-based, human; settings: Homo sapiens, SW-620; SW620, chemotherapeutic alone; read-out: Chemo GI50
# Method: (§5) The combination index (CI) of combinations of certain example compounds and various chemotherapeutic agents in the CellTitetI-Glo® in vitro cell proliferation assays may be tested. A combination index score is calculated by the Chou and Talalay method (CalcuSyn software, Biosoft). The strength of synergy is scored using the ranking system Chou and Talalay: CI less than 0.8 indicates synergy, CI between 0.8 and 1.2 indicates additivity and CI greater than 1.2 indicates antagonism.
# (§6) The EC50 values of representative combinations are also calculated. The individually measured EC50 values of the chemotherapeutic agent and the example compounds are compared to the EC50 value of the combination. The cell lines are characterised by tumor type. Combination assays are performed as described in: “Pim 1 kinase inhibitor ETP-45299 suppresses cellular proliferation and synergizes with PI3K inhibition”. Blanco-Aparicio, Carmen; Collazo, Ana Maria Garcia; Oyarzabal, Julen; Leal, Juan F.; Albaran, Maria Isabel; Lima, Francisco Ramos; Pequeno, Belen; Ajenjo, Nuria; Becerra, Mercedes; Alfonso, Patricia; Reymundo, Maria Isabel; Palacios, Irene; Mateos, Genoveva; Quinones, Helena; Corrionero, Ana; Carnero, Amancio; Pevarello, Paolo; Lopez, Ana Rodriguez; Fominaya, Jesus; Pastor, Joaquin; Bischoff, James R. Cancer Letters (Shannon, Ireland) 2011, 300(2), 145-153
# HCT116 = test: Combination assay, HCT116; format: cell-based; settings: Homo sapiens, HCT-116; HCT116, chemotherapeutic alone; read-out: Chemo GI50
# Method: as §5, §6
# DU145 = test: Combination assay, DU145; format: cell-based; settings: Homo sapiens, DU-145; DU145, chemotherapeutic alone; read-out: Chemo GI50
# Method: as §5
# The EC50 values of representative combinations are also calculated. The individually measured EC50 values of the chemotherapeutic agent and the example compounds are compared to the EC50 value of the combination. The cell lines are characterised by tumor type. […] Blanco-Aparicio, Carmen; Collazo, Ana Maria Garcia; Oyarzabal, Julen; Leal, Juan F.; Albaran, Maria Isabel; Lima, Francisco Ramos; Pequeno, Belen; Ajenjo, Nuria; Becerra, Mercedes; Alfonso, Patricia; Reymundo, Maria Isabel; Palacios, Irene; Mateos, Genoveva; Quinones, Helena; Corrionero, Ana; Carnero, Amancio; Pevarello, Paolo; Lopez, Ana Rodriguez; Fominaya, Jesus; Pastor, Joaquin; Bischoff, James R. Cancer Letters (Shannon, Ireland) 2011, 300(2), 145-153
# Sequence of CDK8/Cyclin C (P49336 whole entry): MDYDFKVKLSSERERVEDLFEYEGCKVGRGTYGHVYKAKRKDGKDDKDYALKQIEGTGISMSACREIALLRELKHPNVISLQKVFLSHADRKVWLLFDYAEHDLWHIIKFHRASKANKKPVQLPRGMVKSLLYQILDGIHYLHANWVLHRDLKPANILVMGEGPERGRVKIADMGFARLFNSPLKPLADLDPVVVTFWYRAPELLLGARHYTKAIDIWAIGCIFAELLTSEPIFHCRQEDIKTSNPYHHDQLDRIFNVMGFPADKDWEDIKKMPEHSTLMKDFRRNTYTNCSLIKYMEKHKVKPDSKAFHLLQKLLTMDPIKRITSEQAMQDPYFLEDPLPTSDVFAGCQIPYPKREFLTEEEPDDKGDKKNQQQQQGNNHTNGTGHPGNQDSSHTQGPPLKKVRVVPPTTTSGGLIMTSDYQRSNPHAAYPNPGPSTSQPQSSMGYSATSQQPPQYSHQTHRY
# Sequence of CDK8/Cyclin C (P24863 whole entry partner): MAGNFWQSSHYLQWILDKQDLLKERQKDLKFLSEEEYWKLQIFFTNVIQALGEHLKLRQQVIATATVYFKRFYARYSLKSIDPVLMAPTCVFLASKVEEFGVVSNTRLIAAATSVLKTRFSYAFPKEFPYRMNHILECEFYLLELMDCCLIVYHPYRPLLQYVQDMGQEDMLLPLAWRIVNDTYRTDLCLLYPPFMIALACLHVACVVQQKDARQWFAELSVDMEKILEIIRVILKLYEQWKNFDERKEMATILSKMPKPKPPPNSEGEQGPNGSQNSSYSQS
# T1 sequence (P49336 whole entry): as the sequence (P49336 whole entry) above
# T1 sequence (P24863 whole entry partner): as the sequence (P24863 whole entry partner) above
# T1 sequence (Q93074 whole entry partner): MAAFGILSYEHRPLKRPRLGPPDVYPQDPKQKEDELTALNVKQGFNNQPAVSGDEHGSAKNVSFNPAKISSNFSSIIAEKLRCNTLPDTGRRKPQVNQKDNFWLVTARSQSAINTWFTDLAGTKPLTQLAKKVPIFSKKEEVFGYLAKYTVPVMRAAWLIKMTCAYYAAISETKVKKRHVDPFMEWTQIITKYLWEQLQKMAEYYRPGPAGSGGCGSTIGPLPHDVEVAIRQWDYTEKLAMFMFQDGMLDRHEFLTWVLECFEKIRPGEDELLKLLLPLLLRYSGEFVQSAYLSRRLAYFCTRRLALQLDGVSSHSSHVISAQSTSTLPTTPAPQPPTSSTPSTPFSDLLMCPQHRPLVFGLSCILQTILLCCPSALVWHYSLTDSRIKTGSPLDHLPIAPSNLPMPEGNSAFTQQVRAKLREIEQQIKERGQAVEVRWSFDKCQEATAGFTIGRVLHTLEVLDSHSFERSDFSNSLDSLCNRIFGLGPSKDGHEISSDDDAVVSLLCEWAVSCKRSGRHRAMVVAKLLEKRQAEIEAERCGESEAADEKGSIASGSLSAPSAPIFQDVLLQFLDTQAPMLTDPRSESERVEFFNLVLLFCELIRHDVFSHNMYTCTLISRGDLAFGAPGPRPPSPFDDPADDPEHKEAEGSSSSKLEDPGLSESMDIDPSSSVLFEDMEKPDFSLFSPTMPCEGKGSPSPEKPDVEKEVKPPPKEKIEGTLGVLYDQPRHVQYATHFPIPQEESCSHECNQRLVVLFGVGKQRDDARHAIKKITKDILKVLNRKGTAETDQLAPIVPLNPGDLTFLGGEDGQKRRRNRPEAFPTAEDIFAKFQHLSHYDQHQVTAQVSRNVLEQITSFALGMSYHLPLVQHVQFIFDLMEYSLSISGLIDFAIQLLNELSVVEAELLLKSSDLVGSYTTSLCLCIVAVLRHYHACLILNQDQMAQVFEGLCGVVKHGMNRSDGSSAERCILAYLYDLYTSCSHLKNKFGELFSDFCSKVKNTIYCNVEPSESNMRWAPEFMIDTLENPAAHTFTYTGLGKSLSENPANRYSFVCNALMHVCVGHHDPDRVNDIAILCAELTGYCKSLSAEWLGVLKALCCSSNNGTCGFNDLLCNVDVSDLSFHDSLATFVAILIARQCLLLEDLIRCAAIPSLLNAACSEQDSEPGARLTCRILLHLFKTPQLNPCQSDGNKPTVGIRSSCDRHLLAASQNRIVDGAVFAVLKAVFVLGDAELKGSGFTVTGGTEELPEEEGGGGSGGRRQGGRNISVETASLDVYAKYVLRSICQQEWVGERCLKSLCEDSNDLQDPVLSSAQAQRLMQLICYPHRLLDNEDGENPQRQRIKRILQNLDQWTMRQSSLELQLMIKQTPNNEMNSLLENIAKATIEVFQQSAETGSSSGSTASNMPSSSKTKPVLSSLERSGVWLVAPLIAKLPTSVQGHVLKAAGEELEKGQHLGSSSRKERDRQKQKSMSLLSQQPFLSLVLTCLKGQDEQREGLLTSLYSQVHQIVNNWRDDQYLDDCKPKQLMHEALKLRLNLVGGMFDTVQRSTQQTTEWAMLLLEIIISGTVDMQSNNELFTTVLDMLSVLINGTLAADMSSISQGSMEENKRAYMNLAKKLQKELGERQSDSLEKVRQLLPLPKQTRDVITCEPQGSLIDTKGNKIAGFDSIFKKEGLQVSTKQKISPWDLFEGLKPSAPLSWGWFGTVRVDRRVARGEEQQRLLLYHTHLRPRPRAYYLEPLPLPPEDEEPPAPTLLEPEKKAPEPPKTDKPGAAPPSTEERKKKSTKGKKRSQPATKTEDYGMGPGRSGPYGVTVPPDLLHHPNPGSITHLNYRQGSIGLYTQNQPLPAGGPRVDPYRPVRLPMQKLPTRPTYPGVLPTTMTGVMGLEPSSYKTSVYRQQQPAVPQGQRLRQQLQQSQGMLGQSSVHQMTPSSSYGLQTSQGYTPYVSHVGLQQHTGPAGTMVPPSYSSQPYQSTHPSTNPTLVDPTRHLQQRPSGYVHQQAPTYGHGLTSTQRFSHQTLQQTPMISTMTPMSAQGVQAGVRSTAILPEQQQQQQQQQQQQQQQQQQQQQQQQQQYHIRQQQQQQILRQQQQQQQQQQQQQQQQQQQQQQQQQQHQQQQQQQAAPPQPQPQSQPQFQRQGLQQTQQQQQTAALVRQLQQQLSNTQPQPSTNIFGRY
# Sequence of CDK19/Cyclin C (Q9BWU1 whole entry): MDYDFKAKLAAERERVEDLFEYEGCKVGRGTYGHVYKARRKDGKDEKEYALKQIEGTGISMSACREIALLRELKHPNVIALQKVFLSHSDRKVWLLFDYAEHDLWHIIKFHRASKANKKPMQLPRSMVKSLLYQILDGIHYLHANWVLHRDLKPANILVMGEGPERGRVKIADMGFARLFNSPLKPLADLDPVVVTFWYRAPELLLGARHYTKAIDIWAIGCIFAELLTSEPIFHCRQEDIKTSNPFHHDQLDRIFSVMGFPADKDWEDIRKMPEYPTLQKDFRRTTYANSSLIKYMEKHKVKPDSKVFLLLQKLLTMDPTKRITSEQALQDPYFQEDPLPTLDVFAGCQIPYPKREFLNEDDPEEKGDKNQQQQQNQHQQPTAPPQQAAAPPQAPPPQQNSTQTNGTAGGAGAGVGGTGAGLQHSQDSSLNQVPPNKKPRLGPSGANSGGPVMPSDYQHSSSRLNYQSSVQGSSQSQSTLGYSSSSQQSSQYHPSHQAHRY
# Sequence of CDK19/Cyclin C (P24863 whole entry partner): as the sequence (P24863 whole entry partner) above
# Sequence of Haspin kinase (Q8TF76 484-798): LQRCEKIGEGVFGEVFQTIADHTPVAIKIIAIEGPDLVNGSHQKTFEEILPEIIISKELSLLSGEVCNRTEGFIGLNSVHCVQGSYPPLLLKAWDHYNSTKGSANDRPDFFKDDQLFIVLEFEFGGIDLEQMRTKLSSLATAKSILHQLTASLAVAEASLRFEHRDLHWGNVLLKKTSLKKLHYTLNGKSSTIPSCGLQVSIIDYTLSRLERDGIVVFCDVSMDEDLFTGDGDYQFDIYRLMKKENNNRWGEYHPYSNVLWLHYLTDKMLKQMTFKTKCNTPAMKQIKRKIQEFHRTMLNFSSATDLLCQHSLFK
SMILES,IC50 (CDK8/Cyclin C) [nM],IC50 (CDK19/Cyclin C) [nM],EC50 (intracellular CDK8 [1]) [nM],GI50 (MV4:11) [nM],GI50 (MDA-MB-231) [nM],GI50 (SW620 [2]) [nM],GI50 (Molm13) [nM],IC50 (Haspin kinase) [nM],EC50 (intracellular CDK8 [3]) [nM],GI50 (SW620 [4]) [nM],GI50 (HCT116) [nM],GI50 (DU145) [nM]
"NC(=O)c1cc2c([nH]1)-c1ccncc1O[C@@H]2C1CCCCC1 (single isomer, unassigned) [Example 69]",19.3,87.3,< 500,< 1000,1000 to 10000,< 1000,< 1000,,,,,
NC(=O)c1cc2c([nH]1)-c1ccncc1OC21CCC1 [Example 15],1.96,1.41,,< 1000,1000 to 10000,10000 to 100000,< 1000,15.9,< 500,,,
"COc1cc(Nc2ncc3c(n2)-c2ccc(Cl)cc2C(c2c(F)cccc2OC)=NC3)ccc1C(=O)O [Alisertib, alisertib, reference compound]",,,,,,,,,,500,12500,12500
"CC(=O)O[C@H]1C(=O)[C@@]2(C)[C@H]([C@H](OC(=O)c3ccccc3)[C@]3(O)C[C@H](OC(=O)[C@H](O)[C@@H](NC(=O)c4ccccc4)c4ccccc4)C(C)=C1C3(C)C)[C@]1(OC(C)=O)CO[C@@H]1C[C@@H]2O [Taxol, paclitaxel, reference compound]",,,,,,,,,,5,5,
